In patent US20230010871A1, “COMPLEXES COMPRISING A CA[…] AND AN ACTIVE INGREDIENT AND PROCESSES FOR THEIR PREPARATION” (FOLIUM LABS INC., priority 2019, published 2023):

Test: Oral pharmacokinetic profile of CBD and THC complexes in rats (plasma concentration by GC-MS/MS)
Settings: per os single gavage, fasted male rats

Row | Compound | CBD Cmax (average) (20 mg/kg CBD-based dose, plasma) [ng/mL] | THC average circulating levels in plasma (20 mg/kg THC-based dose)
1 | C=C(C)[C@@H]1CCC(C)=C[C@H]1c1c(O)cc(CCCCC)cc1O [CBD, cannabidiol] | 12.7 | –
2 | CCCCCc1cc(O)c2c(c1)OC(C)(C)[C@@H]1CCC(C)=C[C@@H]21 [pure THC, tetrahydrocannabinol] | – | mostly below the limit of quantitation
